The values that follow come from patent US10828301B2, “2,4-pyrimidinediamine compounds and their uses” (Rigel Pharmaceuticals, Inc, priority 2002, dated 2020).

The subject of experiment [1] is cultured human mast cells (CHMC). The experiment in a line: CHMC low cell density IgE activation: tryptase and LTC4 assays. Type of experiment: cell-based. Particulars: Low Density CHMC, anti-IgE activation, tryptase readout, read-out: CHMC anti-IgE Tryptase. The gist of the method:
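Degranulation measured after 30 min anti-IgE challenge at 37° C of CHMC plated at 1000-1500 cells/well following 1 h preincubation. Readouts: LTC4 by ELISA on donor-specific diluted supernatants, and tryptase activity from a 30 min room-temperature substrate reaction.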

The test system is the same in experiment [2]. Kind of experiment: CHMC low cell density ionomycin activation: tryptase assay. As to conditions: Low Density CHMC, ionomycin activation, tryptase readout, read-out: CHMC Ionomycin Tryptase. Type of experiment: cell-based.

Consider `CC(C)Oc1ccc(Nc2nc(Nc3ccc(C(C)(C)CO)cc3)ncc2F)cc1` [Compound R935151, 5-Fluoro-N2-[4-(2-hydroxy-1,1-dimethylethyl)phenyl]-N4-(4-isopropoxyphenyl)-2,4-pyrimidinediamine], for which the IC50 in experiment [1] (Homo sapiens, Mast cell) was 0.479 µM; in experiment [2] (Homo sapiens, Mast cell), above 10 µM.
In the same order, the values of `COC(=O)Cc1ccc(Nc2ncc(F)c(Nc3ccc(CC(=O)OC)cc3)n2)cc1` [Compound R926605, N2,N4-Bis[4-(methoxycarbonylmethyl)phenyl]-5-fluoro-2,4-pyrimidinediamine] are 2.45 µM and above 10 µM.
On the same counts, the results for `CC(C)c1ccc(O)cc1Nc1ncc(F)c(Nc2cc(O)ccc2C(C)C)n1` [Compound R935077, N2,N4-Bis(5-hydroxy-2-isopropylphenyl)-5-fluoro-2,4-pyrimidinediamine] are above 10 µM and above 10 µM.
As for `COc1ccc(-c2ccccc2)cc1Nc1ccnc(Nc2cc(-c3ccccc3)ccc2OC)n1` [Compound R925805, N2,N4-Bis(2-methoxy-5-phenylphenyl)-2,4-pyrimidinediamine], the IC50 in experiment [1] (Homo sapiens, Mast cell) was above 10 µM; in experiment [2] (Homo sapiens, Mast cell), above 10 µM.
Turning to `CC(C)Oc1cccc(Nc2ncc(F)c(Nc3cccc(N)c3)n2)c1` [Compound R950164, N4-(3-Aminophenyl)-5-fluoro-N2-(3-isopropoxyphenyl)-2,4-pyrimidinediamine], the IC50 in experiment [1] (Homo sapiens, Mast cell) is 1.89 µM; in experiment [2] (Homo sapiens, Mast cell) it was above 10 µM.
As for `COc1cc(-c2ccccc2)c(C)cc1Nc1ncc(Br)c(Nc2cc(C)c(-c3ccccc3)cc2OC)n1` [Compound R925801, N2,N4-Bis(2-methoxy-5-methyl-4-phenylphenyl)-5-bromo-2,4-pyrimidinediamine], the IC50 was above 10 µM in experiment [1] (Homo sapiens, Mast cell) and above 10 µM in experiment [2] (Homo sapiens, Mast cell).
For `Oc1c(Cl)cc(Nc2ncc(F)c(Nc3ccc4c(c3)OCCO4)n2)cc1Cl` [Compound R926763, N4-(3,4-Ethylenedioxyphenyl)-5-fluoro-N2-(3,5-dichloro-4-hydroxyphenyl)-2,4-pyrimidinediamine], the IC50 in experiment [1] (Homo sapiens, Mast cell) is 0.195 µM; in experiment [2] (Homo sapiens, Mast cell) it was above 10 µM.
As for `OCCOc1cccc(Nc2nc(Nc3cccc(O)c3)ncc2F)c1` [Compound R935170, 5-Fluoro-N4-[3-(2-hydroxyethoxy)phenyl]-N2-(3-hydroxyphenyl)-2,4-pyrimidinediamine], the IC50 is 0.673 µM in experiment [1] (Homo sapiens, Mast cell) and above 10 µM in experiment [2] (Homo sapiens, Mast cell).
Consider `c1cc2c(cc1Nc1cc(Nc3ccc4c(c3)OCCO4)nc(Nc3ccc4c(c3)OCCO4)n1)OCCO2` [Compound R926516, N2,N4,N6-Tris(3,4-ethylenedioxyphenyl)-2,4,6-pyrimidinetriamine], for which the IC50 in experiment [1] (Homo sapiens, Mast cell) is 1 µM; in experiment [2] (Homo sapiens, Mast cell) it was above 10 µM.
On to `COc1ccc(Nc2ncc([N+](=O)[O-])c(Nc3ccc(OC)c(OC)c3)n2)cc1OC` [Compound R940089, N2,N4-Bis-(3,4-dimethoxypenyl)-5-nitro-2,4-pyrimidinediamine], for which the IC50 in experiment [1] and in experiment [2] was above 10 µM each time.
Turning to `COC(=O)c1cc(Nc2nc(Nc3cccc(O)c3)ncc2Br)cn1C` [Compound R935025, 5-Bromo-N2-(3-hydroxyphenyl)-N4-(N-methyl-2-carbomethoxypyrrol-4-yl)-2,4-pyrimidinediamine], the IC50 in experiment [1] (Homo sapiens, Mast cell) is 1.04 µM; in experiment [2] (Homo sapiens, Mast cell), above 10 µM.
With `Clc1cccc(-c2cnc(Nc3ccc4c(c3)OCCO4)nc2Nc2ccc3c(c2)OCCO3)c1` [Compound R925787, N2,N4-Bis(3,4-ethylenedioxyphenyl)-5-(3-chlorophenyl)-2,4-pyrimidinediamine], the IC50 in experiment [1] (Homo sapiens, Mast cell) was 9 µM; in experiment [2] (Homo sapiens, Mast cell), above 10 µM.
In the case of `Oc1ccc(Nc2ncc(F)c(Nc3ccc(O)c(Cl)c3)n2)cc1Cl` [Compound R926675, N2,N4-Bis(3-chloro-4-hydroxyphenyl)-5-fluoro-2,4-pyrimidinediamine], the IC50 is 0.63 µM in experiment [1] (Homo sapiens, Mast cell) and above 10 µM in experiment [2] (Homo sapiens, Mast cell).
